Reference: patent publication US20140005103A1, “SULFONAMIDE DERIVATIVES AND METHODS OF USE THEREOF FOR IMPROVING THE PHARMACOKINETICS OF A DRUG” (Merck, Sharp & Dohme Corp., priority 2012, published 2014)

Assays:
CYP1A2 = molecular target: T1, CYP1A2 (Homo sapiens, UniProt P05177); experiment: Cocktail CYP assay, phenacetin O-deethylation; assay type: in vitro ADME; conditions: human liver microsomes, 10 μM phenacetin; test concentrations up to 10 μM
T1 construct: 0.1 mg/mL protein human liver microsomes (BD Gentest); tissue BD Gentest; host or cells: human liver microsomes
T1 sequence (P05177 1-516): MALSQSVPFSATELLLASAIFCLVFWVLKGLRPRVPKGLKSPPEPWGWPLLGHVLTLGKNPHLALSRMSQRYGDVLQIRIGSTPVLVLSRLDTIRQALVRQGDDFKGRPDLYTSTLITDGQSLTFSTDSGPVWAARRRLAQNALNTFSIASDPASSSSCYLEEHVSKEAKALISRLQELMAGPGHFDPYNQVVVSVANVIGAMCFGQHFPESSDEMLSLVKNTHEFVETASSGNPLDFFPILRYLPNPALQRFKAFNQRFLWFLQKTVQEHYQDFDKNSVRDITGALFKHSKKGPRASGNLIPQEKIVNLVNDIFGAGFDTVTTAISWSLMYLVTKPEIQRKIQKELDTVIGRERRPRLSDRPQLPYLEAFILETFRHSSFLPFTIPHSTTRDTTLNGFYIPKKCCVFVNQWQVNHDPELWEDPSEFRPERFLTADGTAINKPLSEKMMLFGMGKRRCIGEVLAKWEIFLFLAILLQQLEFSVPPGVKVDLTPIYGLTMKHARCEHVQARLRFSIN
Experimental: (§1) Determination of IC50 in a Cocktail Assay for CYPs 1A2, 2C9, 2C19, 2D6 and 3A4
(§2) This assay was performed in a standard 96-well plate design. IC50 values were calculated from the percent inhibition observed for each test compound at 6 concentrations (for example, 0.0032, 0.016, 0.08, 0.4, 2 and 10 μM). The incubation substrate mix contains 10 μM phenacetin (1A2), 5 μM diclofenac (2C9), 30 μM mephenyloin (2C19), 5 μM dextromethorphan (2D6) and 2 μM midazolam (3A4), 0.1 mg/mL protein human liver microsomes (BD Gentest), 1 mM NAPDH, 3.3 mM MgCl2 and 100 mM potassium phosphate buffer (pH 7.4). The production of the metabolite of each probe substrate was determined after incubation for 10 min at 37° C. Quantitation of the metabolite peak area ratio against an internal standard (tolbutamide) was determined by LC/MS/MS analysis following acetonitrile treatment of the incubations.
(§3) Samples were analyzed in the MRM mode with a SCIEX API-4000 mass spectrometer (Applied Biosystems, Foster City, Calif.), with a Shimadzu LC-20 AD pump (Shimadzu corporation, Kyoto, JP) and a CTC PAL autosampler (Agilent Technologies, Switzerland). A Phenomenex, Luna, 5 nm, 100 A, 2.00×30 mm HPLC column was used for the separation. The mobile phases were: (A) 0.1% formic acid in water and (B) 0.1% formic acid in acetonitrile. The binary gradient was as follows.
(§4) The peak area ratio of the analyte to the internal standard was used to quantify the metabolite. The values of peak area ratios in the presence of test compound were compared to those of maximum or minimum controls and were expressed as % inhibition by interpolating between the maximum and minimum peak area ratios. Incubations with no inhibitor were defined as the maxima.
(§5) The following equation was used to calculate the % inhibition:
(§6) [1−[(X−Low control)/(High control−Low control)]]*100
(§7) For the IC50 calculation, SigmaPlot was used to plot the mean % inhibition versus the test compound concentrations and for non-linear regression analysis of the data. Depending on the range of data points defining the inhibition curve, the data may have been fit to the 4-parameter logistic equation.

CYP2C9 = molecular target: T2, CYP2C9 (Homo sapiens, UniProt P11712); experiment: Cocktail CYP assay, diclofenac 4'-hydroxylation; assay type: in vitro ADME; conditions: human liver microsomes, 5 μM diclofenac; test concentrations up to 10 μM
T2 construct: 0.1 mg/mL protein human liver microsomes (BD Gentest); tissue BD Gentest; host or cells: human liver microsomes
T2 sequence (P11712 whole entry): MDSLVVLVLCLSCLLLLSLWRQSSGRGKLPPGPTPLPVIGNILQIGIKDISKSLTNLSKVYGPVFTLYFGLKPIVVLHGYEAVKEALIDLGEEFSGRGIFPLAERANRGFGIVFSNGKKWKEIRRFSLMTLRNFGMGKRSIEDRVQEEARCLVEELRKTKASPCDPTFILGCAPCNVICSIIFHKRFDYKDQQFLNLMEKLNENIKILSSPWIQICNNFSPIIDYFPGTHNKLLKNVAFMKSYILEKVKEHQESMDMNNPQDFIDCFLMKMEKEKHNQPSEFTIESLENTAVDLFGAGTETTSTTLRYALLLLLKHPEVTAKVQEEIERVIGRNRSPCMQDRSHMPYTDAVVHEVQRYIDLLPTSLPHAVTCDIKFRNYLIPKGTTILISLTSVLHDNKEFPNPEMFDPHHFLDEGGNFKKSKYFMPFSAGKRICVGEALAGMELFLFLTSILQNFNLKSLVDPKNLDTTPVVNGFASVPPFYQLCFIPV
Experimental: as §1, §2, §3, §4, §5, §6, §7

CYP2C19 = molecular target: T3, CYP2C19 (Homo sapiens, UniProt P33261); experiment: Cocktail CYP assay, mephenytoin 4'-hydroxylation; assay type: in vitro ADME; conditions: human liver microsomes, 30 μM mephenytoin; test concentrations up to 10 μM
T3 construct: 0.1 mg/mL protein human liver microsomes (BD Gentest); tissue BD Gentest; host or cells: human liver microsomes
T3 sequence (P33261 whole entry): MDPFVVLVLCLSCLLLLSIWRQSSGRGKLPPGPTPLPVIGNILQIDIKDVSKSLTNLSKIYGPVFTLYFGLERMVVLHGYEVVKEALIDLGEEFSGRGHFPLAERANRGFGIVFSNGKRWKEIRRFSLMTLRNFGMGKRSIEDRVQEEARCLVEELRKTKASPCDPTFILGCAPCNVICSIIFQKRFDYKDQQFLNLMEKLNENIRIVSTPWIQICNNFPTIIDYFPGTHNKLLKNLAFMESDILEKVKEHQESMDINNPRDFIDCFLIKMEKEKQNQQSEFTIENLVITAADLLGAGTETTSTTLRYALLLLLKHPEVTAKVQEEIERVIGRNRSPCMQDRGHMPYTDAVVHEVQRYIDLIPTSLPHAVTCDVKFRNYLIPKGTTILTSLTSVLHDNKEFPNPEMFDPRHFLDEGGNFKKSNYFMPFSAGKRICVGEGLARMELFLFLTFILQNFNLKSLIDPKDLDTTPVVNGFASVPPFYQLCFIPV
Experimental: as §1, §2, §3, §4, §5, §6, §7

CYP2D6 = molecular target: T4, CYP2D6 (Homo sapiens, UniProt P10635); experiment: Cocktail CYP assay, dextromethorphan O-demethylation; assay type: in vitro ADME; conditions: human liver microsomes, 5 μM dextromethorphan; test concentrations up to 10 μM
T4 construct: 0.1 mg/mL protein human liver microsomes (BD Gentest); tissue BD Gentest; host or cells: human liver microsomes
T4 sequence (P10635 whole entry): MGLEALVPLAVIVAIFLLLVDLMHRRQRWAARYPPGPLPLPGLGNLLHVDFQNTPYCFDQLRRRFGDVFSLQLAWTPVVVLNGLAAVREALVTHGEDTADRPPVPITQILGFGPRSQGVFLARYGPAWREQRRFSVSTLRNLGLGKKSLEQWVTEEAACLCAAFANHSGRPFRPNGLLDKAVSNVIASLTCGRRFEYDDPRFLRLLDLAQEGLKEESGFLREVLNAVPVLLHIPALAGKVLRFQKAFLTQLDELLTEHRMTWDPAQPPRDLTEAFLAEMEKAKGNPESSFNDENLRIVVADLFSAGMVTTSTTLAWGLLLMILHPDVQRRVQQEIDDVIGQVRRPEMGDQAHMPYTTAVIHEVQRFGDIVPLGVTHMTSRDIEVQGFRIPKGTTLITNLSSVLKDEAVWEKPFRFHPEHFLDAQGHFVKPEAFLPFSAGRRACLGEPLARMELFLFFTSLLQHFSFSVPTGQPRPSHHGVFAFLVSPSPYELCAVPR
Experimental: as §1, §2, §3, §4, §5, §6, §7

CYP3A4 = CYP3A4 (Homo sapiens, UniProt P08684); experiment: IC50 vs CYP3A by inhibition of lopinavir metabolism in human liver microsomes; assay type: biochemical; conditions: pH 7.4, human liver microsomes, 1.5 μM lopinavir, 8 min at 37° C., test concentrations 0.098-100 nM, read-out: 3A4(LPV)
Chain of CYP3A4 (P08684 2-503): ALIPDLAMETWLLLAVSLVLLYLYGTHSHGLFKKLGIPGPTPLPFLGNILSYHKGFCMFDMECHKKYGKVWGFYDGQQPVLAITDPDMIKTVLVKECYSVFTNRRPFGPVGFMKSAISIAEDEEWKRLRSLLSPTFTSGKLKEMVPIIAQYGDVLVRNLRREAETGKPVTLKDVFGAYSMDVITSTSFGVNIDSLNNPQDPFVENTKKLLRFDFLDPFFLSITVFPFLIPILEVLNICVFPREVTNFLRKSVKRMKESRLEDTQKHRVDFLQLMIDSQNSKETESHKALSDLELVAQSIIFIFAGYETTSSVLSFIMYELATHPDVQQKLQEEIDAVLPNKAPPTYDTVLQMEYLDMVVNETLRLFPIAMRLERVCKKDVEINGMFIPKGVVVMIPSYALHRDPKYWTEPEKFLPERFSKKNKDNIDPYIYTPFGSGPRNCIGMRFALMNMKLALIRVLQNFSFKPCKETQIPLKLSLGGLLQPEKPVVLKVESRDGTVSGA
Experimental: Determination of IC50 vs CYP3A by Measurement of Inhibition of Lopinavir Metabolism
This assay was performed in a standard 96-well plate design. IC50 values were calculated from the percent inhibition observed for each test compound at 6 concentrations (for example, 0.098, 0.391, 1.56, 6.25, 25 and 100 nM). The incubation substrate mix contains 1.5 μM lopinavir, 0.01 mg/mL protein human liver microsomes (BD Gentest), 1 mM NAPDH, 3.3 mM MgCl2 and 100 mM potassium phosphate buffer (pH 7.4). The production of the sum of three hydroxylated metabolites (M2: 6-hydroxy lopinavir, M3: 4-hydroxy lopinavir, M4: 4-hydroxy lopinavir (epimer of M3), Kumar et al., 1999) was determined after incubation for 8 min at 37° C. Quantitation of the metabolite peak area ratio against an internal standard (tolbutamide) was determined by LC/MS/MS analysis following acetonitrile treatment of the incubations.
as §3, with “μm,” for “nm,”
as §4, with “maxima and with 5 μM ketoconazole were defined as the minima” for “maxima.”
as §5, §6, §7

human CYP11B1 = molecular target: T5, human CYP11B1 (Homo sapiens, UniProt P15538); experiment: IC50 vs CYP11B1 by cortisol synthesis in V79 cells; assay type: cell-based; conditions: V79 cells expressing human CYP11B1, 1500 nM RSS, cortisol HTRF; test concentrations 0.5-10000 nM
T5 construct: expressed in transfected cells
T5 sequence (P15538 25-503): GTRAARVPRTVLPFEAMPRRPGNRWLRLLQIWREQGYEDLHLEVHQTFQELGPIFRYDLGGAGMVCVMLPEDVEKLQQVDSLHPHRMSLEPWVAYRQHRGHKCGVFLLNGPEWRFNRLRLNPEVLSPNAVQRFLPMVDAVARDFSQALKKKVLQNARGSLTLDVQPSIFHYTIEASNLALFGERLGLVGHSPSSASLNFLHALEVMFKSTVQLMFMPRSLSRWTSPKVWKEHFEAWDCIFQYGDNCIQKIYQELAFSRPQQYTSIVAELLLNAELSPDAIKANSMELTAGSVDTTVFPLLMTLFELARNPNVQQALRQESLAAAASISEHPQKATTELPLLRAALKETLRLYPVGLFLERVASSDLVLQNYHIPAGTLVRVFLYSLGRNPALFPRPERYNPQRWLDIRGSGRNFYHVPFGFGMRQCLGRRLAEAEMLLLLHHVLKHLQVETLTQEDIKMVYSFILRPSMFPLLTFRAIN
Experimental: (§8) Determination of IC50 vs CYP11B1/CYP11B2 by Measurement of Cortisol/Aldosterone Synthesis
(§9) This assay was performed in a standard 384-well plate design using cultured V79 cells stably expressing human CYP11B1 or human CYP11B2. Test compounds at 10 concentrations (for example, 10000, 3333.3, 1111.1, 370.4, 123.5, 41.2, 13.7, 4.6, 1.5 and 0.5 nM) were added in 384-well plate after the cell-seeding procedure. The incubation substrate contains 1500 nM RSS for CYP11B1 assay/750 nM DOC for CYP11B2 assay. The
(§10) Cortisol/Aldosterone production of cell culture supernatant was determined by Cortisol/Aldosterone HTRF kit after for about 15 hours incubation at RT (protect from light). IC50 values were calculated from the percent inhibition observed for each test compound at 10 concentrations.
(§11) The assay plate was read using Envision (Perkin Elmer, Waltham, Mass.) at 665 nm and 590 nm (using Filter Barcode of 217#, 205#; Mirror Barcode of 446#).
(§12) Data are analyzed using Assay Data Analyzer. All ratio data (665 nm/590 nm) are back calculated according to the standard curve, resulting in Cortisol/Aldosterone concentrations. IC50 values are reported as the Inflection Point (IP) of a four parameter fit of the titration data.
as §5
(§13) % Activity=100×{1−(Sample_back calculated Cortisol/Aldosterone concentration−LC_back calculated Cortisol/Aldosterone concentration)/(HC_back calculated Cortisol/Aldosterone concentration−LC_back calculated Cortisol/Aldosterone concentration)}

human CYP11B2 = molecular target: T6, human CYP11B2 (Homo sapiens, UniProt P19099); experiment: IC50 vs CYP11B2 by aldosterone synthesis in V79 cells; assay type: cell-based; conditions: V79 cells expressing human CYP11B2, 750 nM DOC, aldosterone HTRF; test concentrations 0.5-10000 nM
T6 construct: expressed in transfected cells
T6 sequence (P19099 25-503): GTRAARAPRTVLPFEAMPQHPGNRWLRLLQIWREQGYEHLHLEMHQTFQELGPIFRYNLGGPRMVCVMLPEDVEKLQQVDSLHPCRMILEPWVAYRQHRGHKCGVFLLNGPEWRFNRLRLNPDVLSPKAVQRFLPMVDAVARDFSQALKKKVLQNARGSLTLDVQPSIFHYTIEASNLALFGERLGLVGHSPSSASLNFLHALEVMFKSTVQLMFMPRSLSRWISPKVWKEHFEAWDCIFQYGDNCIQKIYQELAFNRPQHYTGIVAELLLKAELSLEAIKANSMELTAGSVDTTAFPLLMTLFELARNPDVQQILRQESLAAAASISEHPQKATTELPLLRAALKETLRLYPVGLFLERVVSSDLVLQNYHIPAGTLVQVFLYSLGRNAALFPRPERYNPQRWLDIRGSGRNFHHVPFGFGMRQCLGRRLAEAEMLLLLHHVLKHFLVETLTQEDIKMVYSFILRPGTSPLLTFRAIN
Experimental: as §8, §9, §10, §11, §12, §5, §13

| SMILES | IC50 (CYP1A2) [µM] | IC50 (CYP2C9) [µM] | IC50 (CYP2C19) [µM] | IC50 (CYP2D6) [µM] | IC50 at 8 min (CYP3A4) [µM] | IC50 (human CYP11B1) [µM] | IC50 (human CYP11B2) [µM] |
| --- | --- | --- | --- | --- | --- | --- | --- |
| COC(c1cncn1[C@H](C)c1ccc(F)cc1)C1CCN(S(=O)(=O)c2cnc(Nc3ccc(C(F)(F)F)cn3)s2)CC1 (single isomer, unassigned) [Compound 45b] | > 10 | 1.45 | 4.49 | 7.85 |  |  |  |
| C[C@H](c1ccc(F)cc1)n1cncc1CN1CCN(S(=O)(=O)c2cnc(N3CC[C@@H]4OCCN[C@H]4C3)s2)CC1 [Compound 13] | > 10 | 7.41 | > 10 |  | 0.0014 | 1.56 |  |
| C[C@H](c1ccc(F)cc1)n1cncc1C1CC12CCN(S(=O)(=O)c1cnc(N3CCN(C)CC3)s1)CC2 (single isomer, unassigned) [Compound 43b] | > 10 | > 10 | 9.2 | 3.6 |  |  |  |
| C[C@H](c1ccc(F)cc1)n1cncc1CN1CCN(S(=O)(=O)c2cnc(N3CC[C@@H]4OCCN[C@H]4C3)s2)CC1 [Compound 14] | > 10 | 9.76 | > 10 |  |  | 1.05 |  |
| COC(c1cncn1[C@H](C)c1ccc(F)cc1)C1CCN(S(=O)(=O)c2cnc(Nc3ccc(C(F)(F)F)cn3)s2)CC1 (single isomer, unassigned) [Compound 45a] | > 10 | 0.336 | 1.13 | 5.68 | < 0.00098 |  |  |
| C[C@H](c1ccc(F)cc1)n1cncc1CN1CCN(S(=O)(=O)c2cnc(N3CC[C@@H](N)[C@H](F)C3)s2)CC1 [Compound 12] | > 10 | 1.75 | > 10 | 2.85 |  | 1.46 | 1.69 |
